Here are results for one compound from the NIST ThermoML archive (doi:10.1016/j.tca.2016.04.023).

The structures appear in SMILES notation. Where “and” joins values, the source holds several entries; their conditions need not be identical. Identical values can stand only once. Numbers after ± are expanded uncertainties.

For data set [1] the following is noted: Crystal; DTA.
Data set [2] can be described thus: Molar enthalpy of transition or fusion. The conditions noted are these: Crystal; DSC.

On to `O.O.O.O.O.O.[Ca+2].[Cl-].[Cl-]` [calcium chloride hexahydrate], for which, in data set [1], the Normal melting temperature is 28.70 ± 1.1 °C and 28.30 ± 1.1 °C. In addition, in data set [2], the “Molar enthalpy of transition or fusion” value is 40.5 kJ/mol and 38.8 kJ/mol.
